The target of experiment [1] is T1, ScMreB5 (Spiroplasma citri, UniProt Q8VQG1).
T1 construct: gene mreB5; monomer about 38 kD, forms filaments
T1 sequence (Q8VQG1 1-352): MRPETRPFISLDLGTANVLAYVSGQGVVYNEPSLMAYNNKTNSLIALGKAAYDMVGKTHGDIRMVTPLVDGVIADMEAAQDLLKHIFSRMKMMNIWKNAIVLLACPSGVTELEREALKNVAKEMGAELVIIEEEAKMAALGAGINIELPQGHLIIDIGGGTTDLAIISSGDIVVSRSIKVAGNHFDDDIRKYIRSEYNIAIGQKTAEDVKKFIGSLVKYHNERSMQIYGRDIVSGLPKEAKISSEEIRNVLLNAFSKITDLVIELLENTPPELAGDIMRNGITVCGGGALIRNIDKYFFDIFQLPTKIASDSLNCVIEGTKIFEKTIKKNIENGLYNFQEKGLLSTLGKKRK
Nature of the experiment: X-ray crystal structure, […] Å. The conditions noted are these: nucleotide-binding pocket; Mg2+ and K+ bound; 2 mM ADP, 2 mM MgCl2; ADP also co-purifies (HPLC).

The target of experiment [2] is T1, ScMreB5. Nature of the experiment: thermal shift (SYPRO Orange). In kind it is binding. The note with it: 2.6 µM protein, protein purified with ADP and MgCl2 added.

Regarding `Nc1ncnc2c1ncn2[C@@H]1O[C@H](COP(=O)(O)OP(=O)(O)O)[C@@H](O)[C@H]1O` [ADP], the “X-ray crystal structure, 2.3 Å” value at ScMreB5 [1] is listed as “ScMreB5 also crystallized in the presence of ADP (PDB accession no. 7BVZ)”. The Tm result at ScMreB5 [2] (1 mM ADP) is “Thermal shift assays showed increased stability in the KCl buffer and upon addition of excess ADP”.

`Nc1ncnc2c1ncn2[C@@H]1O[C@H](COP(=O)(O)OP(=O)(O)OP(=O)(O)O)[C@@H](O)[C@H]1O` [ATP]: the Tm entry at ScMreB5 [2] (1 mM ATP) was “increased stability in the KCl buffer and upon addition of excess ADP or ATP”.

These data come from publication PMC9195046, “Filament organization of the bacterial actin MreB is dependent on the nucleotide state” (The Journal of Cell Biology, 2022).
